Measured values from the supplement of paper PMC6045584.

How the values were obtained:
Assay in all cases: area under dose-response curve of surviving fraction (unscaled, Aref=0) (surviving fraction x log10(nM)); higher = more resistant
Settings in all cases: exposure time: 5 days; dose range 0.5-1000 nM
[1] = compound: CCn1c(C(=O)N(C2CC2)C2CC2)cc2c3c(ncn3C)c(Nc3cc(C)n(C)n3)nc21
Method in brief: (§1)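 Surviving fractions were fitted by 3-parameter logistic regression in the drc R package to give dose-response survival curves. They came from tumour cell lines treated for five days with eight inhibitor concentrations from 0.5 to 1000 nM and read by CellTiter-Glo luminescence against DMSO-only wells. The area under the curve is the unscaled activity area. It was calculated over log10 dose with Aref = 0.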

[2] = compound: CN1CCN(c2nc(C3=C(c4c[nH]c5ccccc45)C(=O)NC3=O)c3ccccc3n2)CC1 [SOTRASTAURIN/AEB071]
Method in brief: as §1

[3] = compound: CNC(=O)c1cc(Oc2ccc(NC(=O)Nc3ccc(Cl)c(C(F)(F)F)c3)cc2)ccn1 [SORAFENIB]
Method in brief: as §1

[4] = compound: COc1cc2c(Oc3ccc(NC(=O)C4(C(=O)Nc5ccc(F)cc5)CC4)cc3F)ccnc2cc1OCCCN1CCOCC1 [FORETINIB]
Method in brief: as §1

[5] = compound: COc1cc2ncnc(Nc3ccc(F)c(Cl)c3)c2cc1NC(=O)/C=C/CN1CCCCC1
Method in brief: as §1

[6] = compound: C[C@@H](Oc1cc(-c2cnn(C3CCNCC3)c2)cnc1N)c1c(Cl)ccc(F)c1Cl [CRIZOTINIB]
Method in brief: as §1

[7] = compound: C[C@@H](Oc1cc(-c2cnn(C3CCNCC3)c2)cnc1N)c1c(Cl)ccc(F)c1Cl
Method in brief: as §1

[8] = compound: C[C@]12CC[C@H](O)CC1=CC[C@@H]1[C@@H]2CC[C@]2(C)C(c3cccnc3)=CC[C@@H]12 [ABIRATERONE]
Method in brief: as §1

[9] = compound: O=C(c1cc(Cc2n[nH]c(=O)c3ccccc23)ccc1F)N1CCN(C(=O)C2CC2)CC1 [OLAPARIB]
Method in brief: as §1

[10] = compound: Oc1nc(-c2ccc(C(F)(F)F)cc2)nc2c1CSCC2 [XAV-939]
Method in brief: as §1

| Test System | area under dose-response curve [1] | area under dose-response curve [2] | area under dose-response curve [3] | area under dose-response curve [4] | area under dose-response curve [5] | area under dose-response curve [6] | area under dose-response curve [7] | area under dose-response curve [8] | area under dose-response curve [9] | area under dose-response curve [10] |
| --- | --- | --- | --- | --- | --- | --- | --- | --- | --- | --- |
| G292 BONE | 3.3 | 3.33 | 3.26 | 2.74 | 3.03 | 3 | 2.88 | 3.4 | 3.17 | 3.14 |
| HCC38 BREAST |  | 3.03 | 4.12 | 2.93 |  |  | 3.21 | 4.04 | 2.57 | 3.17 |
| HCC70 BREAST | 3.28 | 3.82 | 3.81 | 3.69 | 3.17 | 3.69 | 3.26 | 3.59 | 3.59 |  |
| HMLE3 BREAST | 3.12 |  |  | 2.9 | 3.01 |  | 2.86 | 3.42 | 3.22 | 3.15 |
| HMT3552 BREAST |  |  |  | 2.99 |  | 3.05 |  |  |  |  |
| HS578T BREAST | 3.19 | 3.13 | 2.64 |  |  |  | 2.75 |  | 2.79 | 3.76 |
